Test results as given in patent publication US20260144788A1, “COMPOUND FOR SHP2 PROTEIN DEGRADATION AND MEDICAL USES THEREOF” (UBIX THERAPEUTICS, INC., priority 2022, published 2026).

Target: T1, SHP2 protein (Homo sapiens, UniProt Q06124)
T1 sequence (Q06124 1-593): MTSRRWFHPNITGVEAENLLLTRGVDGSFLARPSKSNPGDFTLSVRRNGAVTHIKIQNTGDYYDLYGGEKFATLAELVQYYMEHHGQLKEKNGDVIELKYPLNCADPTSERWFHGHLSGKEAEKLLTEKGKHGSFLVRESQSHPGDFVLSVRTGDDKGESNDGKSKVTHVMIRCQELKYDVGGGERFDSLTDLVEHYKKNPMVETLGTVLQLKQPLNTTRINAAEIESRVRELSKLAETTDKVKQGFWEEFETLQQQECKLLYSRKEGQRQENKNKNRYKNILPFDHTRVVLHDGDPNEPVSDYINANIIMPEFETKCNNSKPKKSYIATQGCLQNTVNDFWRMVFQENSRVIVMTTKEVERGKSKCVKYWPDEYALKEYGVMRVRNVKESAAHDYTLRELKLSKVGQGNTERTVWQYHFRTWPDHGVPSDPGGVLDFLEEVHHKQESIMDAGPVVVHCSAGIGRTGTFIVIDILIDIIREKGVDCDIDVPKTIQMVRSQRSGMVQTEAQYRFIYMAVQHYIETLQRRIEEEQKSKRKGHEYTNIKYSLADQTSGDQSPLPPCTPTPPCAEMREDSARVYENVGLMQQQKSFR
Assay: Measurement of SHP2 protein degradation in NCI-H358 cells (western blotting)
Format: cell-based
Set-up: endogenous in cells; host or cells: NCI-H358
Details: harvested after 24 hours
Outline: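 H358 cells in RPMI1640/25 mM HEPES/10% FBS, cultured 24 h, then exposed to compound at final 0.001, 0.01 and 0.1 μM for 24 h against a DMSO control. Lysates were normalised for protein by BCA and probed by western blot for SHP2, with GAPDH as loading control.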

Compound | SHP2% degradation (0.01 μM) | SHP2% degradation (0.1 μM)
Cc1cn([C@H](C(=O)N2C[C@H](O)C[C@H]2C(=O)NCc2ccc(-c3scnc3C)cc2OC2CCN(C(=O)C3CCN(c4nccc(Sc5cnc(N6CCC(C)(N)CC6)c(CO)n5)c4Cl)CC3)CC2)C(C)C)nn1 [Example 109, (2S,4R)—N-(2-((1-(1-(4-((5-(4-amino-4-methylpiperidin-1-yl)-6-(hydroxymethyl)pyrazin-2-yl)thio)-3-chloropyridin-2-yl)piperidine-4-carbonyl)piperidin-4-yl)oxy)-4-(4-methylthiazol-5-yl)benzyl)-4-hydroxy-1-((S)-3-methyl-2-(4-methyl-1H-1,2,3-triazol-1-yl)butanoyl)pyrrolidine-2-carboxamide] | 99.0% | 99.4%
Cc1cn([C@H](C(=O)N2C[C@H](O)C[C@H]2C(=O)NCc2ccc(-c3scnc3C)cc2OC2CCN(C(=O)C3CCN(c4nccc(Sc5cnc(N6CCC7(CC6)CO[C@@H](C)[C@H]7N)c(CO)n5)c4Cl)CC3)CC2)C(C)C)nn1 [Example 110, (2S,4R)—N-(2-((1-(1-(4-((5-((3S,4S)-4-amino-3-methyl-2-oxa-8-azaspiro[4.5]decan-8-yl)-6-(hydroxymethyl)pyrazin-2-yl)thio)-3-chloropyridin-2-yl)piperidine-4-carbonyl)piperidin-4-yl)oxy)-4-(4-methylthiazol-5-yl)benzyl)-4-hydroxy-1-((S)-3-methyl-2-(4-methyl-1H-1,2,3-triazol-1-yl)butanoyl)pyrrolidine-2-carboxamide] | 99.8% | 99.8%
Cc1cn([C@H](C(=O)N2C[C@H](O)C[C@H]2C(=O)NCc2ccccc2OC2CCN(C(=O)C3CCN(c4nccc(Sc5cnc(N6CCC7(CC6)CO[C@@H](C)[C@H]7N)c(CO)n5)c4Cl)CC3)CC2)C(C)C)nn1 [Example 111, (2S,4R)—N-(2-((1-(1-(4-((5-((3S,4S)-4-amino-3-methyl-2-oxa-8-azaspiro[4.5]decan-8-yl)-6-(hydroxymethyl)pyrazin-2-yl)thio)-3-chloropyridin-2-yl)piperidine-4-carbonyl)piperidin-4-yl)oxy)benzyl)-4-hydroxy-1-((S)-3-methyl-2-(4-methyl-1H-1,2,3-triazol-1-yl)butanoyl)pyrrolidine-2-carboxamide] | 98.0% | 99.9%
Cc1cn([C@H](C(=O)N2C[C@H](O)C[C@H]2C(=O)NCc2ccc(Cl)cc2OC2CCN(C(=O)C3CCN(c4nccc(Sc5cnc(N6CCC7(CC6)CO[C@@H](C)[C@H]7N)c(CO)n5)c4Cl)CC3)CC2)C(C)C)nn1 [Example 112, (2S,4R)—N-(2-((1-(1-(4-((5-((3S,4S)-4-amino-3-methyl-2-oxa-8-azaspiro[4.5]decan-8-yl)-6-(hydroxymethyl)pyrazin-2-yl)thio)-3-chloropyridin-2-yl)piperidine-4-carbonyl)piperidin-4-yl)oxy)-4-chlorobenzyl)-4-hydroxy-1-((S)-3-methyl-2-(4-methyl-1H-1,2,3-triazol-1-yl)butanoyl)pyrrolidine-2-carboxamide] | 93.8% | 99.7%
Cc1cn([C@H](C(=O)N2C[C@H](O)C[C@H]2C(=O)NCc2ccc(C#N)cc2OC2CCN(C(=O)C3CCN(c4nccc(Sc5cnc(N6CCC7(CC6)CO[C@@H](C)[C@H]7N)c(CO)n5)c4Cl)CC3)CC2)C(C)C)nn1 [Example 113, (2S,4R)—N-(2-((1-(1-(4-((5-((3S,4S)-4-amino-3-methyl-2-oxa-8-azaspiro[4.5]decan-8-yl)-6-(hydroxymethyl)pyrazin-2-yl)thio)-3-chloropyridin-2-yl)piperidine-4-carbonyl)piperidin-4-yl)oxy)-4-cyanobenzyl)-4-hydroxy-1-((S)-3-methyl-2-(4-methyl-1H-1,2,3-triazol-1-yl)butanoyl)pyrrolidine-2-carboxamide] | 96.2% | 99.8%
